Data from patent US11820758B2, “NEK6 kinase inhibitors useful for the treatment of solid tumors” (CONSIGLIO NAZIONALE DELLE RICERCHE, priority 2018, dated 2023).
Where two headings read alike, the source gives them in different places.

Experiments:
NCI-H1975 = assay: Cytotoxicity (ATPlite, 72 h) on NCI-H1975; format: cell-based; conditions: Homo sapiens, NCI-H1975 (lung), read-out: IC50 values (μM ± SEM)
Protocol: (§1) The compounds C8 and C21 identified in the previous assay of enzymatic activity were tested on 8 tumour cell lines representative of different solid tumours: MDA-MB231 and MCF7 (mammary tumour; ATCC, LGC Standards S.r.L, Sesto San Giovanni, MI), PEO1 and COV318 (ovarian tumour; ECACC, Saltssbury, UK), HCT-15 and SW948 (colon tumour; ECAC and ATCC, Sesto San Giovanni, MI), NCI-H1975 and NCI-H1299, (lung tumour; ATCC). Through experiments of cytotoxicity the capability of such compounds of inhibiting the cell growth was evaluated.
(§2) The cell lines were kept in culture in 75-cm^2 average flasks in atmosphere humidified with 5% CO2/95% air in the following media: DMEM supplemented with 10% FBS, 1% Kanamycin, 1% amino acids not essential for MDA-MB231 and MCF7; RPMI 10% FBS, 1% Kanamycin, 1% amino acids not essential for COV318, NCI-H1975 and NCI-H1299, with addition of 2 mM Sodium Pyruvate for PEO-1; RPMI 20% FBS, 1% Kanamycin, 1% amino acids not essential for HCT-15; LEIBOVITZ'S L15, 10% FBS, 1% Kanamycin, 1% amino acids not essential for SW948. All reagents were purchased at Sigma-Aldrich (St. Louis, MO) if not otherwise specified.
(§3) 24 h after plating the compounds were added in quadruplicate at the following concentrations: C8 (6 μM; 12 μM; 24 μM; 48 μM; 96 μM; 192 μM) and C21 (8 μM; 16 μM; 32 μM; 64 μM; 128 μM; 256 μM).

COV318 = assay: Cytotoxicity (ATPlite, 72 h) on COV318; format: cell-based; conditions: Homo sapiens, COV318 (ovary), read-out: IC50 values (μM ± SEM)
Protocol: as §1, §2, §3

PEO-1 [1] = assay: Cytotoxicity (ATPlite, 72 h) on PEO-1; format: cell-based; conditions: Homo sapiens, PEO1, 72 h, PEO-1 (ovary), read-out: IC50 values (μM ± SEM)
Protocol: as §1, §2
24 h after plating the compounds were added in quadruplicate at the following concentrations: C8 (6 μM; 12 μM; 24 μM; 48 μM; 96 μM; 192 μM) and C21 (8 μM; 16 μM; 32 μM; 64 μM; 128 μM; 256 μM). […]

MDA-MB-231 = assay: Cytotoxicity (ATPlite, 72 h) on MDA-MB-231; format: cell-based, human; conditions: MDA-MB-231 (breast), read-out: IC50 values (μM ± SEM)
Protocol: as §1, §2
24 h after plating the compounds were added in quadruplicate at the following concentrations: C8 (6 μM; 12 μM; 24 μM; 48 μM; 96 μM; 192 μM) and C21 (8 μM; 16 μM; 32 μM; 64 μM; 128 μM; 256 μM). […] Similarly, the compound 21 inhibits the growth by 50% at 75±12 μM.

NCI-H1299 = assay: Cytotoxicity (ATPlite, 72 h) on NCI-H1299; format: cell-based, human; conditions: NCI-H1299 (lung), read-out: IC50 values (μM ± SEM)
Protocol: as §1, §2
(§4) 24 h after plating the compounds were added in quadruplicate at the following concentrations: C8 (6 μM; 12 μM; 24 μM; 48 μM; 96 μM; 192 μM) and C21 (8 μM; 16 μM; 32 μM; 64 μM; 128 μM; 256 μM). […] The compound 21 has no inhibitory activity (IC50>100 μM), (Table 1).

MCF-7 = assay: Cytotoxicity (ATPlite, 72 h) on MCF-7; format: cell-based; conditions: Homo sapiens, MCF7, MCF-7 (breast), read-out: IC50 values (μM ± SEM)
Protocol: as §1, §2
MCF-7 were plated (40,000 cells/ml) in a 96-well black plate. […] 24 h after plating the compounds were added in quadruplicate at the following concentrations: C8 (6 μM; 12 μM; 24 μM; 48 μM; 96 μM; 192 μM) and C21 (8 μM; 16 μM; 32 μM; 64 μM; 128 μM; 256 μM).

NEK6 [2] = biological target: T1, NEK6 (Homo sapiens, UniProt Q9HC98); assay: LANCE-Ultra NEK6 kinase assay; format: biochemical; conditions: for IC50: LANCE-Ultra, 4 nM NEK6, 50 nM ULight-p70 S6K peptide, 100 μM ATP, 90 min, average of 4 experiments ± SEM, read-out: IC50 of NEK6 activity inhibition; for NEK6 activity inhibition in screening: single concentration 30 μM, FIG. 1
Protocol: FIG. 1. NEK6 activity inhibition. Bar graph representing the results of the screening of several compounds at 30 μM by using LANCE-Ultra NEK6 kinase assay (PerkinElmer) incubated with 4 nM NEK6, 50 nM ULight-p70 S6K Peptide and 100 μM ATP for 90 minutes at room temperature. As control inhibitor quercetin was used.
FIG. 2. FIG. 2 represents the molecules identified with inhibitory activity on NEK6 by using LANCE-Ultra NEK6 kinase assay (PerkinElmer). The curves represent the % of NEK6 activity depending upon the inhibitor concentration. A) The compound 8 (ZINC05007751) is capable of inhibiting the NEK6 activity with 1050=3.4±1.2 μM; B) the compound 21 (ZINC04384801) inhibits NEK6 at 1050=2.6±0.05 μM. The IC50 value derives from the average of IC50s of 4 independent experiments±SEM. Each point of the curve represents the average of a triplicate±SEM of a representative experiment.
The compounds in powder (Molport, Riga, LV-1011, Latvia) were dissolved in DMSO 100% at a stock concentration of 10 mM. The fresh compounds were tested initially at a single concentration (30 μM) with LANCE NEK6 Ultra Kinase Assays (Perkin Elmer, Monza (MB)), whereas the remaining solution was aliquoted, kept at −20° C. and used for the enzymatic inhibition curves of the selected compounds. The reaction was performed in 384-OptiPlate™-384 (PerkinElmer #6007290) white plates, by using as reagents the Europium-labeled anti-phospho-p70 S6K (Thr389) Antibody (PerkinElmer #TRF0214), ULight-p70 S6K (Thr389) (PerkinElmer #TRF0126), NEK6 (Carna, Chuo-ku, Kobe, Japan, #05-130), LANCE® Detection Buffer, 10×(PerkinElmer #CR97-100), ATP (Sigma-Aldrich, Saint Louis, U.S.A, #A2383). NEK6, ATP and the compounds were diluted in Kinase Buffer (50 mM HEPES pH 7.5, 1 mM EGTA, 10 mM MgCl2, 2 mM DTT and 0.01% Tween-20), and where necessary DMSO was added to obtain a concentration of 0.3% in the final reaction volume. For the initial screening the compounds were tested at the final concentration of 30 μM, final DMSO 0.3% in kinase buffer and incubated with 4 nM NEK6, 50 nM ULight-p70 S6K Peptide and 100 μM ATP, in a reaction volume of 10 μL for 90 minutes at room temperature. As control inhibitor quercetin (Molport #001-740-557) was used. For the enzymatic inhibition curves, the selected compounds C8 (Molport #002-933-483), C21 (Molport #000-911-820) were diluted serially (dilutions 1:2) from 30 μM to 0.9375 μM (final concentrations: 30 μM; 15 μM; 7.5 μM; 3.75; 1.875 μM; 0.9375 μM in 0.3% DMSO) and incubated under the same conditions. […] After the film removal, the signal was read at the Enspire (PerkinElmer) plate reader (excitation 320 nm and emission at 665 nm). The % of enzymatic activity of NEK6 was calculated with respect to the control (100% activity), after subtracting the white of the experiment.

SW948 = assay: Cytotoxicity (ATPlite, 72 h) on SW948; format: cell-based; conditions: Homo sapiens, SW948 (colon), read-out: IC50 values (μM ± SEM)
Protocol: as §1, §2, §3

NEK6 [3] = biological target: T1, NEK6; assay: Off-chip Mobility Shift Assay (MSA); format: biochemical; conditions: CDK7 peptide 1000 nM, 5 h
Protocol: The inhibitory activity on NEK6 of the compounds C8 and C21 was checked with the technique of Off-chip Mobility Shift Assay (MSA) (CARNA Biosciences Study ID: CBS170097, CARNA Biosciences, Kobe). […] PKR inhibitor was used as positive control. […] of solution 4× of the compounds, […] of 4× Substrate/ATP/Metal solution, and […] of 2× kinase solution were prepared with the reaction buffer (20 mM HEPES, 0.01% Triton X-100, 1 mM DTT, pH7.5), mixed and incubated in wells of polypropylene in 384-well plate for 5 hours at room temperature. Afterwards, […] of Termination Buffer (QuickScout Screening Assist MSA; Carna Biosciences) were added. One proceeded with analysing the reaction with LabChip system (Perkin Elmer), by separating and quantizing the peaks of product and substrate. The kinase reaction was then evaluated based upon the ratio (P/(P+S)) calculated based upon the heights of peak of peptides product (P) and substrate (S). The reading value of the control reaction (complete reaction mix) was placed as 0% of inhibition and the bottom value (Enzima (−)) was placed as 100% of inhibition, then the inhibition percentage of each sample was calculated. The value of IC50 was calculated by means of a logistic model at 4 parameters of the inhibition curves by adaptation to a four-parameter logistic curve.

HCT-15 = assay: Cytotoxicity (ATPlite, 72 h) on HCT-15; format: cell-based, human; conditions: HCT-15 (colon), read-out: IC50 values (μM ± SEM)
Protocol: as §1, §2
as §4, with “HCT-15 were plated (40,000 cells/ml) in a 96-well black plate. […] 24 h” for “24 h”

PEO-1 [4] = assay: cells; conditions: Homo sapiens, PEO1, 72 h, read-out: IC50 (nM ± SEM)
Protocol: In order to prepare the cytotoxicity experiments the cells were trypsinized, counted with NEUBAUER chamber and plated in black plate having 96 wells per line (Perkinelmer). MDA-MB231, PEO-1, COV318, SW948, NCI-H1975 and NCI-H1299, were plated at 100,000 cells/ml, HCT-15 and MCF-7 at 40,000 cells/ml, In each well of the plate 200 μl of cell suspension were added. […] Parallelly, the single curves of each drug and of C8 were performed.
After 72 h from the addition of the compounds and/or drugs, the effect on the cell growth was evaluated by using the kit ATPlite (PerkinElmer) following the manufacturer's specifications. The luminescence signal was read at the instrument ENspire (PerkElmer). For each treated line, the % of inhibition of the growth with respect to the control and IC50 was calculated with software GraphPad Prism5 Software (San Diego, CA, USA). The combination index (CI) was calculated by using the program Compusyn (downloadable from www.combosyn.com), for the analysis of the combined effects of drugs based upon the equation of Chou-Talalay (Chou-Talalay, Adv Enzyme Regul 1984; 22:27-55). CI<1, =1, and >1 designates synergism, additive effect and antagonism, respectively.
PEO-1 were plated (100,000 cells/ml) in a 96-well black plate. In each well of the plate 200 μl of cell suspension were added.

PEO-1 [5] = assay: Cytotoxic effect of compound 8 in combination with Cisplatin in PEO-1; format: cell-based, human; conditions: PEO-1, 72 h; IC50 of cisplatin alone or with C8 fixed at 44 μM; read-out: IC50 (μM ± SEM)
Protocol: Cisplatin (Sigma-Aldrich, St. […] The luminescence signal was read at the instrument […]). […] Parallelly, the single curves of Cisplatin and compound 8 were performed. […] Pharmacol Rev. 2006; 58:621-81).

T1 sequence (Q9HC98 whole entry): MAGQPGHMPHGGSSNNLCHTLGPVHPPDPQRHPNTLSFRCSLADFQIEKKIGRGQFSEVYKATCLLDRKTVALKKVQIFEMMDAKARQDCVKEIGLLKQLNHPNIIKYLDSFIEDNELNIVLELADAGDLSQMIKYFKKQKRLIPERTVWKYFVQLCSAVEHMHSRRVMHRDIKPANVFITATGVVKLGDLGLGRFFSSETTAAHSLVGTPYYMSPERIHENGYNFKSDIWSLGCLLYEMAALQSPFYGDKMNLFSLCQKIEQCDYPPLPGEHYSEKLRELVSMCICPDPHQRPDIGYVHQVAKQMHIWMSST

| SMILES | IC50 (NCI-H1975) [µM] | IC50 (COV318) [µM] | IC50 (PEO-1 [1]) [µM] | IC50 (MDA-MB-231; Homo sapiens, MDA-MB-231, 72 h) [µM] | IC50 (MDA-MB-231) [µM] | IC50 (NCI-H1299; Homo sapiens, NCI-H1299, 72 h) [µM] | IC50 (MCF-7) [µM] | IC50 (NEK6 [2]) [µM] | NEK6 activity inhibition in screening (NEK6 [2]) | IC50 (SW948) [µM] | IC50 (NEK6 [3]) [µM] | IC50 (HCT-15; Homo sapiens, HCT-15, 72 h) [µM] | IC50 (PEO-1 [4]) [nM] | IC50 (NCI-H1299) [µM] | IC50 (HCT-15) [µM] | IC50 (PEO-1 [5]) [µM] |
| --- | --- | --- | --- | --- | --- | --- | --- | --- | --- | --- | --- | --- | --- | --- | --- | --- |
| Nc1nc2c(c(=O)[nH]1)C(c1ccccc1)C1=C(N2)c2ccccc2C1=O (stereo not drawn) [C21, 6-amino-2-phenyl-5,7,9-triazatetracycle[8.7.0.0^3,^8.0^11,^16]heptadeca 1(10),3(8),6,11,13,15 hexaene-4, 17-dione] | > 100 | > 100 | > 100 | < 100 | 75 ± 12 | > 100 | > 100 | 2.6 ± 0.05 | most active | > 100 | 49.8 | > 100 | – | – | – | – |
| CC(=O)O[C@H]1C(=O)[C@@]2(C)[C@H]([C@H](OC(=O)c3ccccc3)[C@]3(O)C[C@H](OC(=O)[C@H](O)[C@@H](NC(=O)c4ccccc4)c4ccccc4)C(C)=C1C3(C)C)[C@]1(OC(C)=O)CO[C@@H]1C[C@@H]2O [Paclitaxel] | – | – | – | – | – | – | – | – | – | – | – | – | 7 ± 0.001 | – | – | – |
| CC1=C(C#N)C(O)=NC(=O)/C1=C\c1ccc(-c2ccccc2)o1 [C8, (5Z)-2-hydroxy-4-methyl-6-oxy-5-[(5-phenylfuran-2il)methylidene]-5,6-dihydropyridine-3-carbonitrile] | > 100 | > 100 | – | < 100 | 65 ± 15 | < 100 | > 100 | 3.4 ± 1.2 | most active | > 100 | 13.8 | < 100 | – | 87.8 ± 10 | 98.5 ± 0.5 | – |
| N.N.[Cl][Pt][Cl] [Cisplatin] | – | – | – | – | – | – | – | – | – | – | – | – | – | – | – | 7.9 ± 0.65 |
